Source: patent US20240366560A1, “SMALL MOLECULE TREATMENT OF FATTY LIVER DISEASE AND HCC” (ScandiEdge Therapeutics AB, priority 2021, published 2024)

Assays:
[1] = test system: PKLR; assay: PKLR protein level by western blot in steatosis-induced HepG2, 7-day drug treatment; type: cell-based; conditions: steatosis-induced HepG2, 7 days of drug treatment, P<0.05, FIG. 2B
Experimental: WT HepG2 was included in this study and cultured by Roswell Park Memorial Institute (RPMI, R2405, Sigma Aldrich) 1640 Medium with 10% fetal bovine serum (FBS) and 1% penicillin-streptomycin (PS). To induce a steatosis model into WT HepG2 cells, high glucose Dulbecco's Modified Eagle Media (DMEM, D0822/D5671, Sigma-Aldrich) containing 10% FBS and 1% PS was used as medium for one week, together with 10 μg/mL insulin and 10 μM T0901317. All of cells were incubated in the incubator with 5% CO2 and 37° C. (Thermo SCIENTIFIC). Fresh medium was provided every two days.
As for drug-screening, different numbers of HepG2 cells were seeded for distinct experiments. More in details, 40,000 cells and 500,000 cells were used for 2-day-drug treatment in 96-well-plate and 6-well plate, respectively, while 80,000 cells and 300,000 cells were used for one-week drug treatment in 96-well plate and 6-well plate, respectively. Detailed drug dosages could be found in FIG. 5. Fresh medium was provided every two days.
Protein content levels were detected by western blot. After the respective treatment of drugs, the cell pellets were lysed in cell lytic M, followed by protein extraction from supernatant (10 min, 13,000r/min centrifuge). Extracted cell lysate was stored in −20° C. Proteins were quantified through Bovine albumin serum (BAS) standard curve with protein assay dye reagent (BIO-RAD). The proteins were separated by SDS-PAGE with 100v in 90 min by mini-protein TGX precast gels (4-15%, 15 wells, 15 μl/well, BIO-RAD), and then transfer to Mini PVDF transfer package through transfer system (Transfer-Turbo, BIO-RAD). After 30 min blocking with 5% skim milk in cold room (4° C.) and washing with TBST, membrane was cut by the size of interested proteins. Primary antibodies were added into the corresponding membrane sections for overnight binding. Then the membranes were washed with TBST, and the secondary antibodies were incubated for 1 h in cold room. The following antibody were used: (Goat pAb to Rb lg, ab205718, abcam; Rb pAb to beta-actin, ab8227, abcam; anti-pklr, HPA006653, SIGMA; Rb pAb to fatty acid synthase, ab99539, abcam). The bindings were imaged by immunostaining and machine (ImageQuant LAS 500). All antibodies were purchased from Abcam online, and βactin was used as global normalized protein. After measurement, the strength of signal for each protein was quantified by ImageJ. The background noise was removed, and all results were normalized by the levels of β-actin.
To further analyse the effect of these drugs on lipid accumulation via the DNL pathway, steatosis was induced to HepG2 by treating the cells with high glucose medium (DMEM), insulin and T0901317 (Hansmannel et al., 2006). […] Therefore, the effects of these two drugs on the de novo synthesis of lipids were investigated based on the steatosis-induced HepG2 model. […] Taken together, it was shown that BX-912 and JNK-IN-5A effectively alleviate the protein expression of PKLR and FASN as well as TG levels in HepG2 cell lines, and thus, it was decided to perform in vivo evaluations to test the effect of these two drugs.

[2] = test system: HSD-fed rats; assay: In vivo efficacy study in HSD-fed steatosis rats: immunohistochemical 8-OH-dG examination of liver; design: species or system rat; conditions: 30 mg/kg, 7 days, HSD 3w group: strong, FIG. 3
Text: In vivo efficacy studies. After 1-week acclimation period, rats were randomly separated into two groups: control group (n=5) and high sucrose group (n=20). The control group was fed with a standard diet while the others consumed high sucrose diet (HSD). Sucrose was purchased from Sigma Chemical Co. (St Louis, MO, USA) and supplied at the dose of 10% in the drink water for two weeks. After 2 weeks, five rats in the HSD group were randomly sacrificed for conformation of NAFLD model. Then, the remaining rats in the HSD group were separated into three sub-groups (n=5): HSD group, HSD plus BX-912 group and HSD plus JNK-IN-5A group. BX-912 and JNK-IN-5A were dissolved in DMSO and were orally administrated using oral gavage for one week (30 mg/kg/day). The HSD group were treated with vehicle solution only. At the end of the experiment, rats were sacrificed after being anesthetized. Blood samples were collected from the abdominal aorta and centrifuged at 8000 rpm for 15 min at 4° C. The plasma was separated and stored at −80° C. until further analysis. Other internal organs, including the heart, adipose tissues, liver, kidney, muscle, intestine (duodenum, ileum, jejunum), pancreas, colon and stomach were immediately removed and then snap frozen in liquid nitrogen and stored at −80° C.; the liver was also fixed in 10% formaldehyde for histopathological examination. Immunohistochemical examination. […]

In the case of `N#Cc1c(NC(=O)c2cccc3ccccc23)sc2c1CCCC2` [JNK-IN-5A, N-(3-cyano-4,5,6,7-tetrahydrobenzo [b]thien-2-yl)-1-naphthalenecarboxamide], the “protein expression level of PKLR” value [1] was “significantly decreased” and the “8-OH-dG expression in hepatocytes in liver tissues” value [2] was “significantly decreased”.

`O=C(Nc1cccc(Nc2ncc(Br)c(NCCc3cnc[nH]3)n2)c1)N1CCCC1` [BX-912, N-[3-[[5-bromo-4-[[2-(1H-imidazol-5-yl)ethyl]amino]-2-pyrimidinyl]amino]phenyl]-1-pyrrolidinecarboxamide] was tested, and the “protein expression level of PKLR” value [1] was “significantly decreased” and the “8-OH-dG expression in hepatocytes in liver tissues” value [2] was “significantly decreased”.
